For 18 compounds, IC50 results are on record in ChEMBL document CHEMBL5136961, “Deglycase-activity oriented screening to identify DJ-1 inhibitors” (RSC Med Chem, 2021).

The target in this assay is T1, Parkinson disease protein 7 (Homo sapiens, UniProt Q99497).
T1 sequence (Q99497 whole entry): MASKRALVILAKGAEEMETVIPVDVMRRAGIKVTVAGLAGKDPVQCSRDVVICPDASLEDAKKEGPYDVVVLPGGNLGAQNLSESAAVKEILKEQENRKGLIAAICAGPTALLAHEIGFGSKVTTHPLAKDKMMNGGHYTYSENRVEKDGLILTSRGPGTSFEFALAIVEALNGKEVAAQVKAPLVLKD
Nature of the assay: Inhibition of pET3a-His-tagged DJ1 (unknown origin) expressed in Escherichia coli BL21 assessed as decrease in esterase activity using DiFMUAc as substrate.
Turning to `O=C1C(=O)N(CCc2ccccc2)c2c(Br)cc(Br)cc21`, the IC50 (commonly the concentration that gives 50% inhibition) came to 0.0626 µM.

Turning to `O=C1C(=O)N(CC2(c3ccccc3)CC2)c2ccc(F)cc21`, the IC50 turned out to be 0.356 µM.

Take `CCN1C(=O)C(=O)c2cc(F)ccc21`: the 50% inhibitory concentration (IC50) stood at 0.118 µM.

In the case of `CC(C)(C)CCN1C(=O)C(=O)c2cc(F)ccc21`, the 50% inhibitory concentration (IC50) was found to be 0.851 µM.

Regarding `COc1ccc(CN2C(=O)C(=O)c3cc(Br)cc(Br)c32)cc1`, the half-inhibitory concentration (IC50) is 0.267 µM.

For the compound `COc1cc(F)cc2c1N(CCc1ccccc1)C(=O)C2=O`, the IC50 came out at 0.0546 µM.

`O=C1C(=O)N(CCc2ccccc2)c2ccc(F)cc21`: the IC50 came out at 0.118 µM.

As to `Cc1ccc(CN2C(=O)C(=O)c3cc(Br)cc(Br)c32)cc1`, the half-inhibitory concentration (IC50) is 0.676 µM.

For the compound `COc1ccc2c(c1)C(=O)C(=O)N2CCc1ccccc1`, the IC50 was determined as 2.93 µM.

Take `C#CCOc1cc2ccccc2cc1C(=O)NC1=CC(=O)C2OC2C1O` (stereo not drawn): the IC50 was found to be 0.51 µM.

Consider `O=C(O)Cc1ccc2c(c1)N(CCc1ccccc1)C(=O)C2=O`, for which the IC50 was 2.35 µM.

As to `O=C1C(=O)N(CCc2ccccc2)c2ccccc21`, the IC50 worked out at 0.701 µM.

`O=C1C=C(CCc2ccccc2)c2ccccc2C1=O`: the IC50 came out at 0.18 µM.

As for `O=C(O)c1ccc2c(c1)C(=O)C(=O)N2CCc1ccccc1`, the 50% inhibitory concentration (IC50) stood at 9.79 µM.

Turning to `O=C1C(Cl)c2cc(F)ccc2N1CCc1ccccc1` (stereo not drawn), the half-maximal inhibitory concentration (IC50) came out at 0.085 µM.

`O=C1C(F)c2cc(F)ccc2N1CCc1ccccc1` (stereo not drawn): the IC50 worked out at 0.7 µM.

In the case of `O=C1N(CCc2ccccc2)c2ccc(F)cc2C1(Cl)Cl`, the concentration for half-maximal inhibition (IC50) turned out to be 1.7 µM.

`O=C1/C(=C/Cl)c2cc(F)ccc2N1CCc1ccccc1`: the IC50 was determined as 15 µM.
